# Experimental data taken from paper PMC10787398, “Simultaneous determination of colistin sulfate and tigecycline in human plasma by liquid chromatography-tandem mass spectrometry method” (BMC Chemistry, 2024).
# Where a name gives a salt, the structure may show the parent alone. Where a SMILES comes first, the peptide text is derived from it. Bridges are numbered along the chain shown (N, C = ends). [ ]: non-standard residue; d: D form. The star is where a group is joined. X1 = CC[C@H](C)CCCCC(=O)*; Dab = NCC[C@H](N)C(=O)O
# Tests used:
# [1] = Stability of analytes in spiked plasma samples under storage conditions; assay type: in vitro ADME, human; details: for Measured value, Stored at -80℃ for 7 days / Measured value, Automatic sampler 15℃ for 24 h / Measured value, Freeze-thaw for 3 cycles / Measured value, At 4℃ for 12 h / Measured value, At room temperature for 6 h: HPLC-MS/MS, n = 5; for Measured value, Automatic sampler 15℃ for 24 h: automatic sampler 15 ℃ 24 h; for Measured value, Freeze-thaw for 3 cycles: frozen at -80 °C and thawed at room temperature; for Measured value, At 4℃ for 12 h: refrigerator 4 °C 12 h
# Procedure: Plasma samples with low, medium, and high mass concentrations were prepared (the mass concentrations of colistin sulfate were 0.1, 1, and 8 µg/mL, respectively, and those of tigecycline were 0.05, 0.5, and 4 µg/mL, respectively). Five replicates of each concentration were prepared and placed in a refrigerator at 4 °C for 12 h, at room temperature for 6 h, and in an automatic sampler at 15 ℃ for 24 h. The samples were, on three occasions, frozen at − 80 °C and thawed at room temperature, and then placed in a − 80 °C refrigerator for seven days. The concentrations and RSDs of colistin sulfate and tigecycline in the plasma samples were calculated based on the accompanying standard curve of the day to evaluate their stabilities.
# [2] = within 8 h after administration; no reference given; cited from earlier work
# Source text: The PK process of the drug in the body is often affected in patients with serious diseases accompanied by microcirculation disorders, hypoproteinemia, liver and kidney insufficiency, and other special pathophysiological states. Large fluctuations in plasma drug concentrations are commonly observed in these cases. TDM can aid in the optimization of administration dosage, individualized dosing, and anti-infective efficacy. Since colistin sulfate has not undergone modern drug development procedures, the current pharmacokinetic data remain unclear, and the plasma concentration is closely correlate ...
# [3] = Plasma trough and peak concentrations in patients on intravenous polymyxin and tigecycline (HPLC-MS/MS); details: human, in vivo, iv, iv
# Source text: Plasma samples were collected from patients receiving simultaneous intravenous polymyxin and tigecycline treatment. Inclusion criteria: ① Patients receiving simultaneous intravenous polymyxin and tigecycline treatment; ② Age ≥ 18 years; ③ Patients who consent to the monitoring of polymyxin and tigecycline blood drug concentrations during treatment. Exclusion criteria: ① Pregnant or lactating women; ② Treatment duration < 3 days; ③ Local administration; ④ Blood dialysis treatment. Once the blood drug concentration reached a steady state, 3 ml of venous blood was collected before and 30 min after the seventh administration to measure the peak and trough concentrations. This study was conducted with approval from the Ethics Committee of Second Hospital of Hebei Medical University (2020-R551). This study was conducted in accordance with the declaration of Helsinki.
# Two hundred microliters of the plasma sample were adopted, with 20 µL of the internal standard added, and it was vortexed for 20 s. Two hundred microliters of 5% trichloroacetic acid was added for acidification and vortexed for 10 s. Two hundred microliters of methanol was added for extraction, vortexed for 2 min, and centrifuged at 10,900 r/min for 5 min. Two hundred microliters of the supernatant were aspirated into the injection bottle, and 10 µL of the sample was injected for the HPLC–MS/MS analysis.
# All patients received an initial dose of 100 mg and a maintenance dose of 50 mg q12h for tigecycline. Three milliliters of venous blood were collected before and after the seventh administration to measure the peak and trough concentrations of the drugs.
# [4] = plasma QC high, nominal colistin sulfate 8 µg/mL, tigecycline 4 µg/mL
# [5] = plasma QC low, nominal colistin sulfate 0.1 µg/mL, tigecycline 0.05 µg/mL
# [6] = plasma QC medium, nominal colistin sulfate 1 µg/mL, tigecycline 0.5 µg/mL
structure (smiles),measurement,setting,value
"CC[C@H](C)CCCCC(=O)N[C@@H](CCN)C(=O)N[C@H](C(=O)N[C@@H](CCN)C(=O)N[C@H]1CCNC(=O)[C@H]([C@@H](C)O)NC(=O)[C@H](CCN)NC(=O)[C@H](CCN)NC(=O)[C@H](CC(C)C)NC(=O)[C@@H](CC(C)C)NC(=O)[C@H](CCN)NC1=O)[C@@H](C)O [Colistin sulfate, colistin sulfate] (X1-[Dab]T[Dab][Dab][Dab][dL]L[Dab][Dab]T; lactam 4-C)","Measured value, Stored at -80℃ for 7 days","[1]; plasma QC high, nominal colistin sulfate 8 µg/mL, tigecycline 4 µg/mL, -80 °C 7 days",8.30 ± 0.32 µg/mL
same,"Measured value, Automatic sampler 15℃ for 24 h",[1]; [4],8.17 ± 0.19 µg/mL
same,"Measured value, Freeze-thaw for 3 cycles",[1]; [4],8.70 ± 0.54 µg/mL
same,"Measured value, At 4℃ for 12 h",[1]; [4],8.23 ± 0.61 µg/mL
same,"Measured value, At room temperature for 6 h","[1]; plasma QC high, nominal colistin sulfate 8 µg/mL, tigecycline 4 µg/mL, room temperature 6 h",8.26 ± 0.30 µg/mL
same,"Measured value, Stored at -80℃ for 7 days","[1]; plasma QC low, nominal colistin sulfate 0.1 µg/mL, tigecycline 0.05 µg/mL, -80 °C 7 days",0.10 ± 0.00 µg/mL
same,"Measured value, Automatic sampler 15℃ for 24 h",[1]; [5],0.10 ± 0.00 µg/mL
same,"Measured value, Freeze-thaw for 3 cycles",[1]; [5],0.09 ± 0.00 µg/mL
same,"Measured value, At 4℃ for 12 h",[1]; [5],0.09 ± 0.01 µg/mL
same,"Measured value, At room temperature for 6 h","[1]; plasma QC low, nominal colistin sulfate 0.1 µg/mL, tigecycline 0.05 µg/mL, room temperature 6 h",0.10 ± 0.00 µg/mL
same,"Measured value, Stored at -80℃ for 7 days","[1]; plasma QC medium, nominal colistin sulfate 1 µg/mL, tigecycline 0.5 µg/mL, -80 °C 7 days",0.98 ± 0.09 µg/mL
same,"Measured value, Automatic sampler 15℃ for 24 h",[1]; [6],0.93 ± 0.01 µg/mL
same,"Measured value, Freeze-thaw for 3 cycles",[1]; [6],1.04 ± 0.04 µg/mL
same,"Measured value, At 4℃ for 12 h",[1]; [6],0.93 ± 0.04 µg/mL
same,"Measured value, At room temperature for 6 h","[1]; plasma QC medium, nominal colistin sulfate 1 µg/mL, tigecycline 0.5 µg/mL, room temperature 6 h",1.00 ± 0.05 µg/mL
same,stability under the above conditions,"[1]; plasma samples, 4 °C 12 h, room temperature 6 h, autosampler 15 ℃ 24 h, 3 freeze-thaw cycles, -80 °C 7 days",good stability
same,administered dose excreted in the urine,[2],40%
same,level at 0.5 h,"[3]; both, peak concentration of colistin sulfate, range over patients, 12 adult patients, steady state, after 7th administration, plasma, HPLC-MS/MS",890 to 4560 ng/mL
same,Cmax,"[3]; female, 500000 IU",890 ng/mL
